Tested on: yeast genes (level of expressed mRNA)
Assay: DNA chip analysis of expressed mRNA of yeast genes after 2 h culture with a toxic chemical substance
Type: cell-based, Saccharomyces cerevisiae S288C
Settings: for The level of expressed mRNA in the presence of chemical substance/ (ratio to absence of chemical substance): stress protein genes, DNA chip
Protocol: Yeast (Saccharomyces cerevtisiae S288C (α SUC2mal mel gap2 CUP1)) were cultured at 25° C. on YPD medium (yeast extract 1%, polypepton 2%, glucose 2%). One of toxic chemical substances was added to the cell at logarithmic growth phase, and the cell was further cultured for two hours. Cell was cultured without any chemical substance in the same condition, and was used as control. Concentrations of the chemical substances were defined to inhibit the growth of the yeast but not lead to death.
After the completion of cultivation, the culture was centrifuged to collect the cells. To the cells, sodium acetate buffer (50 mM sodium acetate, 10 mM EDTA, 1% SDS) was added, and the mixture was shaken at 65° C. for five minutes, followed by returning to room temperature, and obtaining the supernatant, which procedure was repeated two times. To the supernatant, ½ amount of a solution of phenol/chloroform was added, and the mixture was centrifuged to give a supernatant, which was added with an equal amount of chloroform, and the mixture was centrifuged to give a supernatant. To the supernatant, an equal amount of isopropanol containing 0.3 M sodium acetate was added, and the mixture was allowed to stand at room temperature for 30 minutes, after which the mixture was centrifuged to give a sediment of the whole RNAs. Seventy % ethanol was added to the sediment, and the mixture was again centrifuged to give a sediment, which was then dried and dissolved in water. mRNA was isolated from the whole RNAs as followings. In view of the fact that a poly A chain is attached to the 3′ terminus of mRNA, a polynucleotide having a poly T structure which was immobilized on the surface of latex beads was used to trap the mRNA, and then the mRNA was washed and eluted with spine column (Oligotex-dT30<Super>mRNA Purification Kit, Takara). Reverse transcription of the mRNA was conducted with a reverse transcriptase (Super Script II Reverse Transcriptase; catalogue No. 18064-014, GibcoBRL) using fluorescence-labeled nucleotides to give cDNAs that were introduced with Cy3-dUTP or Cy5-dUTP during the reverse transcription.
The labeled cDNAs were dissolved in TE buffer (10 mM Tris-HCl/1 mM EDTA, pH8.0), and the solution was dropped on the DNA chip containing the whole genes of yeast (DNA Chip Research Inc. Japan) so that the cDNAs were hybridized on the DNA chip at 65° C. for over 12 hours. The fluoresces intensity of the DNA chip was read with a scanner, and the ratio relative to the fluorescence intensity resulting from the absence of chemical substance was estimated as the following, which is shown in Tables 1 to 9: [formula]
In the Tables, “Intensity” indicated in the rightmost column is a value of the level of expressed mRNA of each gene in control cells as divided by the average level of the expressions of the whole genes.

CCCCC[C@H](O)CC(=O)CCc1ccc(O)c(OC)c1 [(13), gingerol] was tested, and the “The level of expressed mRNA in the presence of chemical substance/ in its absence, gene YDL078C” value (yeast gene YDL078C, ratio of DNA chip fluorescence intensity to that without chemical substance) was 1.0, the “The level of expressed mRNA in the presence of chemical substance/ (in its absence), gene YDL215C” value (yeast gene YDL215C, ratio of DNA chip fluorescence intensity to that without chemical substance) was 1.5 and the “The level of expressed mRNA in the presence of chemical substance/The level of expressed mRNA in the absence of chemical substance” value (yeast gene YDL238C) was 2.0. For the same compound, the “The level of expressed mRNA in the presence of chemical substance/The level of expressed mRNA in the absence of chemical substance” value (yeast gene YDR055W) was 3.1, the “The level of expressed mRNA in the presence of chemical substance/ (in its absence), gene YDR073W” value (yeast gene YDR073W, ratio of DNA chip fluorescence intensity to that without chemical substance) was 0.6 and the “The level of expressed mRNA in the presence of chemical substance/ in its absence, gene YDR079W” value (yeast gene YDR079W, energy system protein genes, 2 h culture with the chemical, ratio to control without chemical) was 1.3. The “The level of expressed mRNA in the presence of chemical substance/ (ratio to absence), gene YDR079W” value (yeast gene YDR079W, mitochondria-located protein genes, 2 h culture with chemical) was 1.3, the “The level of expressed mRNA in the presence of chemical substance/The level of expressed mRNA in the absence of chemical substance” value (yeast gene YDR084C) was 1.0 and the “The level of expressed mRNA in the presence of chemical substance/The level of expressed mRNA in the absence of chemical substance” value (yeast gene YDR085C) was 1.1. For the same compound, the “The level of expressed mRNA in the presence of chemical substance/The level of expressed mRNA in the absence of chemical substance” value (yeast gene YDR104C) was 1.6, the “The level of expressed mRNA in the presence of chemical substance/The level of expressed mRNA in the absence of chemical substance” value (yeast gene YDR115W) was 1.1 and the “The level of expressed mRNA in the presence of chemical substance/The level of expressed mRNA in the absence of chemical substance” value (yeast gene YDR259C) was 2.0. For the same compound, the “The level of expressed mRNA in the presence of chemical substance/ (in its absence), gene YDR297W” value (yeast gene YDR297W, ratio of DNA chip fluorescence intensity to that without chemical substance) was 0.8, the “The level of expressed mRNA in the presence of chemical substance/The level of expressed mRNA in the absence of chemical substance” value (yeast gene YDR315C) was 1.6 and the “The level of expressed mRNA in the presence of chemical substance/The level of expressed mRNA in the absence of chemical substance” value (yeast gene YDR358W) was 3.2. For the same compound, the “The level of expressed mRNA in the presence of chemical substance/ (ratio to absence), gene YDR377W” value (yeast gene YDR377W, mitochondria-located protein genes, 2 h culture with chemical) was 0.7, the “The level of expressed mRNA in the presence of chemical substance/ (in its absence), gene YDR387C” value (yeast gene YDR387C, ratio of DNA chip fluorescence intensity to that without chemical substance) was 1.3 and the “The level of expressed mRNA in the presence of chemical substance/The level of expressed mRNA in the absence of chemical substance” value (yeast gene YDR388W) was 1.7. For the same compound, the “The level of expressed mRNA in the presence of chemical substance/The level of expressed mRNA in the absence of chemical substance” value (yeast gene YDR432W) was 1.4, the “The level of expressed mRNA in the presence of chemical substance/The level of expressed mRNA in the absence of chemical substance” value (yeast gene YDR481C) was 1.5 and the “The level of expressed mRNA in the presence of chemical substance/The level of expressed mRNA in the absence of chemical substance” value (yeast gene YDR510W) was 2.0. The “The level of expressed mRNA in the presence of chemical substance/ (ratio to absence of chemical substance)” value (yeast gene YEL039C) was 0.5, the “The level of expressed mRNA in the presence of chemical substance/The level of expressed mRNA in the absence of chemical substance” value (yeast gene YEL042W) was 0.4 and the “The level of expressed mRNA in the presence of chemical substance/The level of expressed mRNA in the absence of chemical substance” value (yeast gene YEL066W) was 1.6. The “The level of expressed mRNA in the presence of chemical substance/ (in its absence), gene YER015W” value (yeast gene YER015W, ratio of DNA chip fluorescence intensity to that without chemical substance) was 0.8, the “The level of expressed mRNA in the presence of chemical substance/The level of expressed mRNA in the absence of chemical substance” value (yeast gene YER039C) was 2.1 and the “The level of expressed mRNA in the presence of chemical substance/ (ratio to absence of chemical substance)” value (yeast gene YER057C) was 1.0. For the same compound, the “The level of expressed mRNA in the presence of chemical substance/The level of expressed mRNA in the absence of chemical substance” value (yeast gene YER107C) was 0.9, the “The level of expressed mRNA in the presence of chemical substance/The level of expressed mRNA in the absence of chemical substance” value (yeast gene YER130C) was 1.6 and the “The level of expressed mRNA in the presence of chemical substance/The level of expressed mRNA in the absence of chemical substance” value (yeast gene YFL028C) was 1.4. For the same compound, the “The level of expressed mRNA in the presence of chemical substance/The level of expressed mRNA in the absence of chemical substance” value (yeast gene YFL043C) was 1.5, the “The level of expressed mRNA in the presence of chemical substance/ (in its absence), gene YGL035C” value (yeast gene YGL035C, ratio of DNA chip fluorescence intensity to that without chemical substance) was 1.1 and the “The level of expressed mRNA in the presence of chemical substance/ (in its absence), gene YGL115W” value (yeast gene YGL115W, ratio of DNA chip fluorescence intensity to that without chemical substance) was 0.7. For the same compound, the “The level of expressed mRNA in the presence of chemical substance/ (ratio to absence of chemical substance)” value (yeast gene YGL115W) was 0.7, the “The level of expressed mRNA in the presence of chemical substance/The level of expressed mRNA in the absence of chemical substance” value (yeast gene YGL158W) was 1.0 and the “The level of expressed mRNA in the presence of chemical substance/ (ratio to absence), gene YGL187C” value (yeast gene YGL187C, mitochondria-located protein genes, 2 h culture with chemical) was 0.7. The “The level of expressed mRNA in the presence of chemical substance/ (in its absence), gene YGL205W” value (yeast gene YGL205W, ratio of DNA chip fluorescence intensity to that without chemical substance) was 1.0, the “The level of expressed mRNA in the presence of chemical substance/The level of expressed mRNA in the absence of chemical substance” value (yeast gene YGL229C) was 1.7 and the “The level of expressed mRNA in the presence of chemical substance/ in its absence, gene YGR062C” value (yeast gene YGR062C, energy system protein genes, 2 h culture with the chemical, ratio to control without chemical) was 1.5. The “The level of expressed mRNA in the presence of chemical substance/ (ratio to absence), gene YGR062C” value (yeast gene YGR062C, mitochondria-located protein genes, 2 h culture with chemical) was 1.5, the “The level of expressed mRNA in the presence of chemical substance/ (in its absence), gene YGR096W” value (yeast gene YGR096W, ratio of DNA chip fluorescence intensity to that without chemical substance) was 1.1 and the “The level of expressed mRNA in the presence of chemical substance/The level of expressed mRNA in the absence of chemical substance” value (yeast gene YGR136W) was 1.7. The “The level of expressed mRNA in the presence of chemical substance/The level of expressed mRNA in the absence of chemical substance” value (yeast gene YGR189C) was 1.2, the “The level of expressed mRNA in the presence of chemical substance/The level of expressed mRNA in the absence of chemical substance” value (yeast gene YGR213C) was 30.4 and the “The level of expressed mRNA in the presence of chemical substance/The level of expressed mRNA in the absence of chemical substance” value (yeast gene YGR257C) was 2.0. For the same compound, the “The level of expressed mRNA in the presence of chemical substance/ (in its absence), gene YGR287C” value (yeast gene YGR287C, ratio of DNA chip fluorescence intensity to that without chemical substance) was 1.7, the “The level of expressed mRNA in the presence of chemical substance/ (in its absence), gene YGR288W” value (yeast gene YGR288W, ratio of DNA chip fluorescence intensity to that without chemical substance) was 1.3 and the “The level of expressed mRNA in the presence of chemical substance/ (ratio to absence of chemical substance)” value (yeast gene YHL028W) was 2.1. For the same compound, the “The level of expressed mRNA in the presence of chemical substance/ (ratio to absence of chemical substance)” value (yeast gene YHL046C) was 1.4, the “The level of expressed mRNA in the presence of chemical substance/The level of expressed mRNA in the absence of chemical substance” value (yeast gene YHR004C) was 1.1 and the “The level of expressed mRNA in the presence of chemical substance/The level of expressed mRNA in the absence of chemical substance” value (yeast gene YHR071W) was 2.3. For the same compound, the “The level of expressed mRNA in the presence of chemical substance/The level of expressed mRNA in the absence of chemical substance” value (yeast gene YHR139C) was 7.0, the “The level of expressed mRNA in the presence of chemical substance/The level of expressed mRNA in the absence of chemical substance” value (yeast gene YHR142W) was 1.2 and the “The level of expressed mRNA in the presence of chemical substance/ (in its absence), gene YHR210C” value (yeast gene YHR210C, ratio of DNA chip fluorescence intensity to that without chemical substance) was 0.4. For the same compound, the “The level of expressed mRNA in the presence of chemical substance/ (in its absence), gene YIL006W” value (yeast gene YIL006W, ratio of DNA chip fluorescence intensity to that without chemical substance) was 0.8, the “The level of expressed mRNA in the presence of chemical substance/ (ratio to absence of chemical substance)” value (yeast gene YIL011W) was 0.5 and the “The level of expressed mRNA in the presence of chemical substance/The level of expressed mRNA in the absence of chemical substance” value (yeast gene YIL123W) was 0.4.

— patent publication US20050112573A1, “Method of detecting toxic substance” (priority 2001, published 2005)
